Experimental data taken from ChEMBL document CHEMBL1255450, “Detection of E119V and E119I mutations in influenza A (H3N2) viruses isolated from an immunocompromised patient: challenges in diagnosis of oseltamivir resistance” (Antimicrob Agents Chemother, 2010).

What was measured:
Assay type in all cases: functional, organism-based, Influenza A virus (A/Texas/12/2007(H3N2))
Conditions in all cases: mdck
[1] = system: Influenza A virus
[2] = system: Influenza A virus; remark: listed apart in the source
[3] = system: Influenza A virus; remark: listed apart in the source
[4] = system: Influenza A virus; remark: listed apart in the source
[5] = system: Influenza A virus; remark: listed apart in the source
[6] = system: Influenza A virus; remark: listed apart in the source
[7] = system: Influenza A virus; remark: listed apart in the source

SMILES | IC50 ([1]; read-out: IC50) | IC50 [2] | IC50 [3] | IC50 [4] | IC50 [5] | IC50 [6] | IC50 [1] | IC50 [7]
C/C=C\[C@@H]1C[C@H](C(=O)O)N[C@H]1[C@@H](NC(C)=O)[C@](C)(CCC)OC | 3 nM | 1.25 nM | 23.9 nM | 1.35 nM | 5.45 nM | 4.96 nM | – | –
CCOC(=O)C1=C[C@@H](OC(CC)CC)[C@H](NC(C)=O)[C@@H](N)C1 [OSELTAMIVIR] | – | 5.49 nM | 431 nM | 8.06 nM | 246 nM | 33.2 nM | 154 nM | 9.18 nM
CCC(CC)[C@H](NC(C)=O)[C@@H]1[C@H](O)[C@@H](C(=O)O)C[C@H]1NC(=N)N [PERAMIVIR ANHYDROUS] | 33.6 nM | 0.43 nM | 214 nM | 0.51 nM | 1.47 nM | 0.9 nM | – | –
CC(=O)N[C@H]1[C@H]([C@H](O)[C@H](O)CO)OC(C(=O)O)=C[C@@H]1NC(=N)N [ZANAMIVIR] | 3.8 nM | – | 18.6 nM | 1.54 nM | – | 12.7 nM | – | –
